Measured values reported in patent US9765075B2, “Substituted bridged urea analogs as sirtuin modulators” (GLAXOSMITHKLINE LLC, priority 2013, dated 2017).
Like-named read-outs stand apart in the source and are kept apart here.

Target: T1, SIRT1 (Homo sapiens, UniProt Q96EB6)
T1 sequence (Q96EB6 1-747): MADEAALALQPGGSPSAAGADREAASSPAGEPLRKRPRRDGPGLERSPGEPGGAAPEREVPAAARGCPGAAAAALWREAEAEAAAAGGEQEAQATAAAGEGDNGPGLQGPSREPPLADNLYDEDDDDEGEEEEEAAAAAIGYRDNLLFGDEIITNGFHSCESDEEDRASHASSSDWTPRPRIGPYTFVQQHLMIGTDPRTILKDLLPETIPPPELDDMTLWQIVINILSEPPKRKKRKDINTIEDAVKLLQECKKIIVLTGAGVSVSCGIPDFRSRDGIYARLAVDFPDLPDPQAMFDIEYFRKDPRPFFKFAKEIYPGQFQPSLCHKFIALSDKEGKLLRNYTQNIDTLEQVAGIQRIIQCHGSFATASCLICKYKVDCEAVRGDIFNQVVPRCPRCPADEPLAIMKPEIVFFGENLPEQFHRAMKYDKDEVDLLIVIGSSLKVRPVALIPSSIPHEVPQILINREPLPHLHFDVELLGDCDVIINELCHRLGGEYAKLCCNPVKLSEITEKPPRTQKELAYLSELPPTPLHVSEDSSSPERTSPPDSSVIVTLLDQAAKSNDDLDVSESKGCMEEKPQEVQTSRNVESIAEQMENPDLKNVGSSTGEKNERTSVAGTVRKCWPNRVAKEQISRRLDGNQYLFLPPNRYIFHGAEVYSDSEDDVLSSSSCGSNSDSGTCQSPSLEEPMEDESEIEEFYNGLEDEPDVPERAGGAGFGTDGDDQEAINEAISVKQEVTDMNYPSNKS
Test: Trp mass spectrometry assay (SIRT1 activation)
Type: biochemical
Conditions: for Emax: percent maximum fold activation of SIRT1, read-out: Tryp % Fold Act
Summary of the method: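 Activation is expressed as EC1.5, the concentration raising activity 50% above DMSO control, and as maximum percent of control. Mass-spec readout was OAADPR or deacetylated Trp peptide after a formic-acid-quenched 25-min, 25 °C reaction: 10 nM bacterially expressed His-SIRT1, 0.5 μM acetyl-p53-derived peptide, 120 μM NAD+, pH 7.5 HEPES with […].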

[1] = concentration of test compound that results in 150% activation of SIRT1, Trp peptide substrate
[2] = Trp mass spectrometry assay, EC1.5 = concentration giving 150% activation of SIRT1

Row | Structure (SMILES) | Tryp AVG EC1.5 (μM) [1] | Emax (Trp peptide substrate) [%] | Tryp AVG EC1.5 (μM) [2] | Emax (Trp mass spectrometry assay) [%]
1 | O=C(Nc1cccc(C2CCNC2)c1)N1c2nc(-c3cccc(C(F)(F)F)c3)ccc2N2CC[C@H]1C2 (stereo partly drawn) [Example 593] | A (EC1.5<1 μM) | ≥ 150 |  | 
2 | NC(=O)CN1CCC(c2cccc(NC(=O)N3c4nc(-c5cccc(C(F)(F)F)c5)ccc4N4CC[C@H]3C4)c2)C1 (stereo partly drawn) [Example 594] | A (EC1.5<1 μM) | ≥ 150 |  | 
3 | O=C(Nc1cc(-c2cnco2)ccn1)N1c2nc(-c3cccc(C(F)(F)F)c3)ccc2N2CCC1CC2 [Example 595] | A (EC1.5<1 μM) | ≥ 150 |  | 
4 | O=C(Nc1cccc(-c2cnco2)n1)N1c2nc(-c3cccc(C(F)(F)F)c3)ccc2N2CCC1CC2 [Example 596] | A (EC1.5<1 μM) | ≥ 150 |  | 
5 | O=C(NCc1ccccc1)N1c2nc(-c3cccc(C(F)(F)F)c3)ccc2N2CC[C@H]1C2 [Example 597] | B (EC1.5 1-25 μM) | ≥ 150 |  | 
6 | O=C(NCCc1ccccc1)N1c2nc(-c3cccc(C(F)(F)F)c3)ccc2N2CC[C@H]1C2 [Example 598] | B (EC1.5 1-25 μM) | ≥ 150 |  | 
7 | O=C(NCCCc1ccccc1)N1c2nc(-c3cccc(C(F)(F)F)c3)ccc2N2CC[C@H]1C2 [Example 599] | B (EC1.5 1-25 μM) | ≥ 150 |  | 
8 | O=C(NCCCCc1ccccc1)N1c2nc(-c3cccc(C(F)(F)F)c3)ccc2N2CC[C@H]1C2 [Example 600] | B (EC1.5 1-25 μM) | ≥ 150 |  | 
9 | O=C(Nc1ccccn1)N1c2nc(-c3cccc(C(F)(F)F)c3)ccc2N2C[C@@H](O)[C@H]1C2 [Example 601] | A (EC1.5<1 μM) | ≥ 150 |  | 
10 | CC(=O)O[C@@H]1CN2C[C@H]1N(C(=O)Nc1ccccn1)c1nc(-c3cccc(C(F)(F)F)c3)ccc12 [Example 602] | B (EC1.5 1-25 μM) | ≥ 150 |  | 
11 | O=C(O[C@@H]1CN2C[C@H]1N(C(=O)Nc1ccccn1)c1nc(-c3cccc(C(F)(F)F)c3)ccc12)c1ccccc1 [Example 603] | C (EC1.5>25 μM) | < 150 |  | 
12 | CC(C)(C)OC(=O)NCCn1cc(-c2cccc(NC(=O)N3c4nc(-c5cccc(C(F)(F)F)c5)ccc4N4CCC[C@H]3C4)c2)nn1 [Example 604] | A (EC1.5<1 μM) | ≥ 150 |  | 
13 | CC(C)(C)OC(=O)NCc1cn(-c2cccc(NC(=O)N3c4nc(-c5cccc(C(F)(F)F)c5)ccc4N4CC[C@H]3C4)c2)nn1 [Example 605] | A (EC1.5<1 μM) | ≥ 150 |  | 
14 | NCc1cn(-c2cccc(NC(=O)N3c4nc(-c5cccc(C(F)(F)F)c5)ccc4N4CC[C@H]3C4)c2)nn1 [Example 606] | A (EC1.5<1 μM) | ≥ 150 |  | 
15 | O=C(CCCC[C@@H]1SC[C@@H]2NC(=O)N[C@@H]21)NCCCCCC(=O)NCc1cn(-c2cccc(NC(=O)N3c4nc(-c5cccc(C(F)(F)F)c5)ccc4N4CC[C@H]3C4)c2)nn1 [Example 607] | A (EC1.5<1 μM) |  |  | 
16 | O=C1OC2(c3ccc(O)cc3Oc3cc(O)ccc32)c2ccc(NC(=S)NCc3cn(-c4cccc(NC(=O)N5c6nc(-c7cccc(C(F)(F)F)c7)ccc6N6CC[C@H]5C6)c4)nn3)cc21 [Example 608] | C (EC1.5>25 μM) | < 150 |  | 
17 | CC(C)(C)OC(=O)N1CCc2ccc(NC(=O)N3c4nc(-c5cccc(C(F)(F)F)c5)ccc4N4CC[C@H]3C4)cc2C1 [Example 609] | B (EC1.5 1-25 μM) | ≥ 150 |  | 
18 | CC(C)(C)OC(=O)N1CCCc2ccc(NC(=O)N3c4nc(-c5cccc(C(F)(F)F)c5)ccc4N4CC[C@H]3C4)cc21 [Example 610] | B (EC1.5 1-25 μM) | ≥ 150 |  | 
19 | CC(C)(C)OC(=O)N1CCc2cc(NC(=O)N3c4nc(-c5cccc(C(F)(F)F)c5)ccc4N4CC[C@H]3C4)ccc2C1 [Example 611] | A (EC1.5<1 μM) | ≥ 150 |  | 
20 | O=C(NCCCN1CCOCC1)N1c2nc(-c3cccc(C(F)(F)F)c3)ccc2N2CC[C@H]1C2 [Example 612] | B (EC1.5 1-25 μM) | ≥ 150 |  | 
21 | O=C(NCCc1ccncc1)N1c2nc(-c3cccc(C(F)(F)F)c3)ccc2N2CC[C@H]1C2 [Example 613] | B (EC1.5 1-25 μM) | ≥ 150 |  | 
22 | O=C(NCCc1ccccn1)N1c2nc(-c3cccc(C(F)(F)F)c3)ccc2N2CC[C@H]1C2 [Example 614] | B (EC1.5 1-25 μM) | ≥ 150 |  | 

Row | Structure (SMILES) | Tryp AVG EC1.5 (μM) [1] | Emax (Trp peptide substrate) [%] | Tryp AVG EC1.5 (μM) [2] | Emax (Trp mass spectrometry assay) [%]
23 | O=C(NCCc1cccnc1)N1c2nc(-c3cccc(C(F)(F)F)c3)ccc2N2CC[C@H]1C2 [Example 615] | B (EC1.5 1-25 μM) | ≥ 150 |  | 
24 | O=C(NCCN1CCOCC1)N1c2nc(-c3cccc(C(F)(F)F)c3)ccc2N2CC[C@H]1C2 [Example 616] | B (EC1.5 1-25 μM) | ≥ 150 |  | 
25 | O=C(Nc1cccc(C(F)(F)F)c1)N1c2nc(-c3cccc(C(F)(F)F)c3)ccc2N2CC[C@H]1C2 [Example 617] | A (EC1.5<1 μM) | ≥ 150 |  | 
26 | O=C(Nc1cccc(-c2ccc(C(F)(F)F)cn2)c1)N1c2nc(-c3cccc(C(F)(F)F)c3)ccc2N2CC[C@H]1C2 [Example 618] | B (EC1.5 1-25 μM) | ≥ 150 |  | 
27 | Cc1ccc(-c2cccc(NC(=O)N3c4nc(-c5cccc(C(F)(F)F)c5)ccc4N4CC[C@H]3C4)c2)cc1C [Example 619] | C (EC1.5>25 μM) | < 150 |  | 
28 | O=C1CN2C[C@H]1N(C(=O)Nc1ccccn1)c1nc(-c3cccc(C(F)(F)F)c3)ccc12 [Example 620] | B (EC1.5 1-25 μM) | ≥ 150 |  | 
29 | Cn1nccc1-c1cccc(NC(=O)N2c3nc(-c4cccc(C(F)(F)F)c4)ccc3N3CC[C@H]2C3)n1 [Example 623] | A (EC1.5<1 μM) | ≥ 150 |  | 
30 | O=C(Nc1ccc2c(c1)CCC2)N1c2nc(-c3cccc(C(F)(F)F)c3)ccc2N2CC[C@H]1C2 [Example 624] | B (EC1.5 1-25 μM) | ≥ 150 |  | 
31 | O=C(Nc1cccc(-c2ccccc2)c1)N1c2nc(-c3cccc(C(F)(F)F)c3)ccc2N2CC[C@H]1C2 [Example 625] |  |  | A (EC1.5<1 μM) | ≥ 150
32 | COC(=O)c1cccc(NC(=O)N2c3nc(-c4cccc(C(F)(F)F)c4)ccc3N3CC[C@H]2C3)c1 [Example 626] |  |  | A (EC1.5<1 μM) | ≥ 150
33 | O=C(NCCCn1ccnc1)N1c2nc(-c3cccc(C(F)(F)F)c3)ccc2N2CC[C@H]1C2 [Example 627] |  |  | B (EC1.5 1-25 μM) | ≥ 150
34 | O=C(Nc1ccc(N2CCCCC2)cc1)N1c2nc(-c3cccc(C(F)(F)F)c3)ccc2N2CC[C@H]1C2 [Example 628] |  |  | B (EC1.5 1-25 μM) | ≥ 150
35 | O=C(Nc1cccc(CN2CCOCC2)c1)N1c2nc(-c3cccc(C(F)(F)F)c3)ccc2N2CC[C@H]1C2 [Example 629] |  |  | A (EC1.5<1 μM) | ≥ 150
36 | O=C(Nc1cncc(F)c1)N1c2nc(-c3cccc(C(F)(F)F)c3)ccc2N2C[C@@H](O)[C@H]1C2 [Example 630] |  |  | A (EC1.5<1 μM) | ≥ 150
37 | O=C(Nc1cccnn1)N1c2nc(-c3cccc(C(F)(F)F)c3)ccc2N2C[C@@H](O)[C@H]1C2 [Example 631] |  |  | B (EC1.5 1-25 μM) | ≥ 150
38 | Cc1nccn1CCCNC(=O)N1c2nc(-c3cccc(C(F)(F)F)c3)ccc2N2CC[C@H]1C2 [Example 632] |  |  | C (EC1.5>25 μM) | ≥ 150
39 | O=C(NCCCc1ccncc1)N1c2nc(-c3cccc(C(F)(F)F)c3)ccc2N2CC[C@H]1C2 [Example 633] |  |  | B (EC1.5 1-25 μM) | ≥ 150
40 | CC(=O)O[C@H]1CN2C[C@H]1N(C(=O)Nc1ccccn1)c1nc(-c3cccc(C(F)(F)F)c3)ccc12 [Example 634] |  |  | C (EC1.5>25 μM) | < 150
41 | CC(=O)N1CCC(c2cccc(NC(=O)N3c4nc(-c5cccc(C(F)(F)F)c5)ccc4N4CC[C@H]3C4)c2)C1 (stereo partly drawn) [Example 635] |  |  | A (EC1.5<1 μM) | ≥ 150
42 | CCC(=O)N1CCC(c2cccc(NC(=O)N3c4nc(-c5cccc(C(F)(F)F)c5)ccc4N4CC[C@H]3C4)c2)C1 (stereo partly drawn) [Example 636] |  |  | A (EC1.5<1 μM) | ≥ 150
43 | O=C(C1CC1)N1CCC(c2cccc(NC(=O)N3c4nc(-c5cccc(C(F)(F)F)c5)ccc4N4CC[C@H]3C4)c2)C1 (stereo partly drawn) [Example 637] |  |  | A (EC1.5<1 μM) | ≥ 150
44 | CC(C)(C)OC(=O)NCc1cnnn1-c1cccc(NC(=O)N2c3nc(-c4cccc(C(F)(F)F)c4)ccc3N3CC[C@H]2C3)c1 [Example 638] |  |  | A (EC1.5<1 μM) | ≥ 150
